# Laboratory results reported in PMC5055185, “Dual pharmacological inhibition of glutathione and thioredoxin systems synergizes to kill colorectal carcinoma stem cells” (Cancer Medicine, 2016).
# pIC50: −log10 of the molar value. Where “and” joins values, the source holds several entries; their conditions need not be identical. Equal entries are not always repeated.
# Key:
# Format in all cases: cell-based, human
# [1] = tested on: DF adult dermal fibroblasts; assay: cell survival (trypan blue exclusion, 5 days), DF; conditions: for pIC50: cellular survival, 5 days
# Procedure: (§1) Modified procedures of CTOS culture 16 were described elsewhere 10. […] The culture medium was serum‐free advanced DMEM/F‐12 (GIBCO, Waltham, MA) supplemented with FGF‐2 (10 ng/mL, ReproCell, Yokohama, Japan), penicillin ([…], Wako, Osaka, Japan), streptomycin (0.1 mg/mL,Wako), gentamicin (50 μg/mL, Wako), and fungizone (0.25 μg/mL, GIBCO). DLD‐1 and HCT116 CRC cell lines were purchased from JCRB Cell Bank (Osaka, Japan) and RIKEN BioResource Center (Ibaraki, Japan), respectively. In order to estimate pharmacological side effects against normal tissues, human diploid fibroblasts were purchased (JCRB Cell Bank) as model cells. The origins of the fibroblasts were as follows: OUMS‐36 (embryo), TIG‐3 (fetal lung), TIG‐111 (dermal fibroblasts [DFs] from individual), TIG‐119 (DFs from individual), and TIG‐102 (DFs from individual). Adult DFs were purchased from Kurabo (Osaka, Japan). CRC cell lines and fibroblasts were maintained under supplier‐recommended culture conditions. Since the culture conditions are different between fibroblasts and CTOSs, we need to be cautious about the interpretation of data (i.e., lateral comparison between them). […] Colorectal CTOSs display augmented survival through maintaining epithelial structure with E‐cadherin 16. On the other hand, the establishment of conventional cell lines (adherent culture) are much less efficient because constant cell division and autonomous survival are required for the procedure. When we choose CTOSs instead of cancer cell lines, we lose the equivalent condition (adherent culture) as a trade‐off.
# (§2) Each drug's half‐maximal inhibitory concentration (IC50) was calculated based on live cell number ratios (drug treated/untreated × 100%) obtained from serial dilution of drug concentration. The length of drug exposure was 5 days. Each number of live cells was counted automatically by trypan blue exclusion (LUNA automated cell counter, Logos Biosystems, Anyang, South Korea). Cancer spheroids were dispersed with serial treatments (20 min each) of TrypLE™ and Accumax™. Thus, IC50 was determined based on cellular survival, but not on proliferation. We chose the survival index instead of the speed of growth because CTOSs in vitro show very slow proliferation (quiescence), which is one of the hallmarks of CSCs 2. The IC50 values of fibroblasts were accordingly determined based on cellular survival index during quiescence (by contact inhibition). […] To quantify the synergism of two distinct drugs, Combination Index (CI) was calculated 21. A CI value of about 1 (0.90–1.10) was defined as nearly additive and CI values more than (>1.10) and less than (<0.90) were defined as antagonism and synergism, respectively. IC50 and CI were determined using CompuSyn software (ComboSyn, Paramus, NK).
# [2] = tested on: OUMS‐36 embryonic fibroblasts; assay: cell survival (live cell count by trypan blue exclusion, 5 days drug exposure), OUMS-36; conditions: for pIC50: OUMS36, cellular survival, 5 days
# Procedure: as §1, §2
# [3] = tested on: phosphorylated NRF2 in embryonic fibroblasts (OUMS and TIG3); assay: NRF2 phosphorylation by western blotting, embryonic fibroblasts; conditions: 24 hours, Auranofin 2µM, Piperlongumine 5µM
# [4] = tested on: CTOS86 colorectal cancer tissue‐originated spheroids; assay: cell survival (trypan blue exclusion, 5 days), CTOS86; conditions: for pIC50: CTOS86, cellular survival, 5 days; for Ratio of survived cells (Drugs treated/Untreated), Average / Ratio of survived cells (Drugs treated/Untreated), single passage points #: CTOS#86
# Text: All experimental procedures were approved by the animal facility at Dokkyo Medical University (ID: 951) and were described elsewhere 10. The existence of CSCs has been experimentally proven through serial xenotransplantation and tumorigenesis 2, 14. […] These subcutaneous tumors were again subjected to enzymatic dissociation and some of the tumor cells were subcutaneously transplanted into other mice. […] Seven cases (CTOS:40, 42, 68, 71, 76, 86, 88) were used for in vitro experiments.
# as §1
# Each drug's half‐maximal inhibitory concentration (IC50) was calculated based on live cell number ratios (drug treated/untreated × 100%) obtained from serial dilution of drug concentration. The length of drug exposure was 5 days. Each number of live cells was counted automatically by trypan blue exclusion (LUNA automated cell counter, Logos Biosystems, Anyang, South Korea). Cancer spheroids were dispersed with serial treatments (20 min each) of TrypLE™ and Accumax™. Thus, IC50 was determined based on cellular survival, but not on proliferation.
# [5] = tested on: NRF2 target genes in colorectal CTOSs; assay: qRT-PCR of NRF2 and TP53 target genes in colorectal CTOSs
# Procedure: Total RNA was purified using RNAiso Plus (Takara, Osaka, Japan). Reverse transcription was performed using PrimeScript™ with gDNA Eraser (Takara). For quantifying the copy number of each mRNA, we used a StepOne™ Real‐Time PCR System (Applied Biosystems, Waltham, MA) and the Taqman® method. Data were calculated according to the modified delta‐cycle of threshold (ΔCT) method. Normalized Log2 expression was defined as follows: (Log2 expression of a gene of interest) = 30 (arbitrary constant) + (CT of 18S rRNA) − (CT of a gene of interest). We used Log2 parameter for statistical analysis because mRNA expression follows a log‐normal distribution, whereas ΔCT follows normal distribution. A gene‐specific fluorescent probe was designed using a web‐based program (https://qpcr.probefinder.com/organism.jsp). […] Gene‐specific Taqman® probes were purchased from Life Technologies, (Waltham, MA, for Cat#, see Table S1 SpreadSheet2). For PCR, Thunderbird® Probe qPCR mix (Toyobo, Osaka, Japan) was used and the PCR conditions consisted of 40 cycles of two steps (95°C for 15 sec and 60°C for 50 sec).
# In order to judge the effect of drug treatments on gene expression, a repeated measures one‐way analysis of variance (ANOVA) was used to determine the variance of Log2 expression from four different groups (untreated, auranofin, CB83, and piperlongumine) using SPSS. Subsequently, the effect of each drug was determined by a paired t test as a post hoc analysis. The P‐values < 0.05 were defined as statistically significant.
# In order to estimate NRF2 compensation induced by pharmacological inhibition of TXNRD (auranofin), G6PD (CB83), or GSTπ (piperlongumine), we quantified gene expression of NRF2 target genes. Activation of NRF2 protein was confirmed by NRF2 phosphorylation (Fig. S5A).
# [6] = tested on: TIG‐119 dermal fibroblasts; assay: cell survival (trypan blue exclusion, 5 days), TIG-119; conditions: for pIC50: TIG119, cellular survival, 5 days
# Procedure: as §1, §2
# [7] = higher dose (auranofin 4, CB83 25, piperlongumine 10 μmol/L) for 24 h
# [8] = lower dose (auranofin 2, CB83 12.5, piperlongumine 5 μmol/L) for 48 h
smiles,measurement,setting,value
"CC[PH](CC)(CC)[Au][S][C@@H]1O[C@H](COC(C)=O)[C@@H](OC(C)=O)[C@H](OC(C)=O)[C@H]1OC(C)=O [Aura, Auranofin]","Ratio of survived cells (Drugs treated/Untreated), Average",[1]; Aura 1 microM,88.25%
same,"Ratio of survived cells (Drugs treated/Untreated), Average",[1]; Aura 2 microM,33%
same,"Ratio of survived cells (Drugs treated/Untreated), single passage points #",[1]; Aura 2 microM,38% and 32% and 36% and 26%
same,"Ratio of survived cells (Drugs treated/Untreated), Average",[1]; Aura 4 microM,0%
same,"Ratio of survived cells (Drugs treated/Untreated), single passage points #",[1]; Aura 4 microM,0%
same,pIC50,[1],5.80
same,pIC50,[2],5.75
same,"Ratio of survived cells (Drugs treated/Untreated), Average","[2]; OUMS-36, Aura 1 microM",87.8571%
same,"Ratio of survived cells (Drugs treated/Untreated), single passage points #","[2]; OUMS-36, Aura 1 microM",123% and 124% and 66% and 91% and 65% and 77% and 69%
same,"Ratio of survived cells (Drugs treated/Untreated), Average","[2]; OUMS-36, Aura 2 microM",39.8571%
same,"Ratio of survived cells (Drugs treated/Untreated), Average","[2]; OUMS-36, Aura 4 microM",6%
same,NRF2 phosphorylation,[3],less efficiently phosphorylated
same,pIC50,[4],5.52
same,"Ratio of survived cells (Drugs treated/Untreated), Average",[4]; Aura 1 microM,83.5%
same,"Ratio of survived cells (Drugs treated/Untreated), single passage points #",[4]; Aura 1 microM,75% and 92%
same,"Ratio of survived cells (Drugs treated/Untreated), Average",[4]; Aura 2 microM,64.5%
same,"Ratio of survived cells (Drugs treated/Untreated), single passage points #",[4]; Aura 2 microM,67% and 62%
same,G6PD mRNA expression change,[5]; [7],up‐regulated
same,GCLM mRNA expression change,[5]; [7],up‐regulated
same,TXNRD1 mRNA expression change,[5]; [7],up‐regulated
same,G6PD mRNA expression change,[5]; [8],up‐regulated
same,GCLC mRNA expression change,[5]; [8],up‐regulated
same,GCLM mRNA expression change,[5]; [8],up‐regulated
same,ME1 mRNA expression change,[5]; [8],up‐regulated
same,TXN mRNA expression change,[5]; [8],up‐regulated
same,TXNRD1 mRNA expression change,[5]; [8],up‐regulated
same,pIC50,[6],5.93
same,"Ratio of survived cells (Drugs treated/Untreated), Average","[6]; TIG-119, Aura 1 microM",53.3333%
same,"Ratio of survived cells (Drugs treated/Untreated), Average","[6]; TIG-119, Aura 2 microM",31.6667%
same,"Ratio of survived cells (Drugs treated/Untreated), Average","[6]; TIG-119, Aura 4 microM",5%
"COc1cc(/C=C/C(=O)N2CCC=CC2=O)cc(OC)c1OC [Pipe, Piperlongumine]","Ratio of survived cells (Drugs treated/Untreated), Average",[1]; Pipe 2.5 microM,94.8333%
same,"Ratio of survived cells (Drugs treated/Untreated), Average",[1]; Pipe 5 microM,80.3333%
same,"Ratio of survived cells (Drugs treated/Untreated), single passage points #",[1]; Pipe 5 microM,81% and 80% and 83% and 109% and 67% and 62%
same,"Ratio of survived cells (Drugs treated/Untreated), Average",[1]; Pipe 10 microM,12.5%
same,pIC50,[1],5.20
same,pIC50,[2],5.03
same,"Ratio of survived cells (Drugs treated/Untreated), Average","[2]; OUMS-36, Pipe 2.5 microM",107.667%
same,"Ratio of survived cells (Drugs treated/Untreated), Average","[2]; OUMS-36, Pipe 5 microM",84.6667%
same,"Ratio of survived cells (Drugs treated/Untreated), Average","[2]; OUMS-36, Pipe 10 microM",49.1667%
same,NRF2 phosphorylation,[3],not
same,NRF2 phosphorylation,[3]; listed as Piperlongmine,almost negligible
same,pIC50,[4],5.15
same,"Ratio of survived cells (Drugs treated/Untreated), Average",[4]; Pipe 2.5 microM,79%
same,"Ratio of survived cells (Drugs treated/Untreated), single passage points #",[4]; Pipe 2.5 microM,79%
same,"Ratio of survived cells (Drugs treated/Untreated), Average",[4]; Pipe 5 microM,60%
same,"Ratio of survived cells (Drugs treated/Untreated), single passage points #",[4]; Pipe 5 microM,69% and 51%
same,"Ratio of survived cells (Drugs treated/Untreated), Average",[4]; Pipe 10 microM,39.5%
same,"Ratio of survived cells (Drugs treated/Untreated), single passage points #",[4]; Pipe 10 microM,39% and 40%
same,G6PD mRNA expression change,[5]; [7],up‐regulated
same,GCLM mRNA expression change,[5]; [7],up‐regulated
same,TXNRD1 mRNA expression change,[5]; [7],up‐regulated
same,G6PD mRNA expression change,[5]; [8],up‐regulated
same,GCLM mRNA expression change,[5]; [8],up‐regulated
same,TXNRD1 mRNA expression change,[5]; [8],up‐regulated
same,pIC50,[6],5.13
same,"Ratio of survived cells (Drugs treated/Untreated), Average","[6]; TIG-119, Pipe 2.5 microM",95.75%
same,"Ratio of survived cells (Drugs treated/Untreated), single passage points #","[6]; TIG-119, Pipe 2.5 microM",83% and 121% and 96%
same,"Ratio of survived cells (Drugs treated/Untreated), Average","[6]; TIG-119, Pipe 5 microM",80.75%
same,"Ratio of survived cells (Drugs treated/Untreated), Average","[6]; TIG-119, Pipe 10 microM",27%
